Numbers after ± are expanded uncertainties.
Assays:
[1] = 298.15 K; 101.33 kPa; Liquid; Vibrating tube method
[2] = refractive index (Na D-line) (dimensionless); conditions: 298.15 K; 101.33 kPa; Liquid; Standard Abbe refractometry

mass density [1] [kg/m3] | refractive index [2] | Compound
802.35 ± 0.13 | 1.3936 ± 0.0005 | CCC(C)O (configuration not stated) [butan-2-ol]
1258.52 ± 0.22 | 1.4726 ± 0.0005 | OCC(O)CO [glycerol]
– | 1.3325 ± 0.0005 | O [water]

Compound | mass density [1] [kg/m3] | refractive index [2]
CCC(C)(C)O [2-methylbutan-2-ol] | 804.21 ± 0.24 | 1.4026 ± 0.0005

Reference: the NIST ThermoML archive (doi:10.1016/j.fluid.2014.06.015)
